Patent US9233979B2, “Compounds that are ERK inhibitors” (Merck Sharp & Dohme Corp., priority 2012, dated 2016)

Target: phosphorylated active hERK2 enzyme (Homo sapiens (Human), UniProt P28482)
Assay: Active Human ERK2 (hERK2) Activity Assay (IMAP-FP)
Format: biochemical
Details: Table 5, 0.5 nM hERK2, 30 μM ATP, 10 point titration, read-out: AERK2 IC50
Procedure: Assays Active Human ERK2 (hERK2) Activity Assay:
Activated ERK2 activity was determined in an IMAP-FP assay (Molecular Devices). […] The final reaction in each well of 25 μL consists of 0.5 nM hERK2, 900 nM unlabeled peptide, 80 nM labeled-peptide, and 30 μM ATP. Phosphorylation reactions were allowed to proceed for 60 minutes and were immediately quenched by the addition of 60 μL IMAP detection beads (1:1000 dilutions) in IMAP binding buffer (Molecular Devices) with 24 mM NaCl. Plates were read on EnVision reader after 60 minutes binding equilibration using Fluorescence Polarization protocol (Perkin Elmer).

phosphorylated active hERK2 enzyme, sequence (P28482 whole entry): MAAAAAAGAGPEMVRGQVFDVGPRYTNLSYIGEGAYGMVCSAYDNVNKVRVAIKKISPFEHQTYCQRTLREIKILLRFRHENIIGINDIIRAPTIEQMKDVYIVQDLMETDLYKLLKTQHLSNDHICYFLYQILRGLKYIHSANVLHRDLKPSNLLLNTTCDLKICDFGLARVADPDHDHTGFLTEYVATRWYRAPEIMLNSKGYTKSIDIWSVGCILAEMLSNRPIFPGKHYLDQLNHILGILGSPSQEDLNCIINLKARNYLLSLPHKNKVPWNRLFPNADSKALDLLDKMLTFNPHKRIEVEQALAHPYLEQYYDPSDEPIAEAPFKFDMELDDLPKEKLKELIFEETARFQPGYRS

| IC50 [nM] | Compound |
| --- | --- |
| 342 | COCCNC(=O)Nc1cc2[nH]nc(N3CC(OC)C3)c2cn1 [Example 7, 1-[3-(3-methoxyazetidin-1-yl)-1H-pyrazolo[4,3-c]pyridin-6-yl]-3-(2-methoxyethyl)urea] |
| 3.05 | CCNc1n[nH]c2c(F)c(NC(=O)N[C@H](C)c3ccccc3)ncc12 [Example 57, (R)-1-(3-(Ethylamino)-7-fluoro-1H-pyrazolo[4,3-c]pyridin-6-yl)-3-(1-phenylethyl)urea] |
| 28 | C[C@@H](NC(=O)Nc1cc2[nH]nc(N3CCN(C)CC3)c2cn1)c1ccccc1 [Example 13, 1-[3-(4-methylpiperazin-1-yl)-1H-pyrazolo[4,3-c]pyridin-6-yl]-3-[(1R)-1-phenylethyl]urea] |
| 424 | C[C@@H](NC(=O)Nc1cc2[nH]nc(NS(=O)(=O)C3CCC3)c2cn1)c1ccccc1 [Example 53, N-[6-({[(1R)-1-phenylethyl]carbamoyl}amino)-1H-pyrazolo[4,3-c]pyridin-3-yl]cyclobutanesulfonamide] |
| 30 | COC[C@@H](C)NC(=O)Nc1cc2[nH]nc(N3CCOCC3)c2cn1 [Example 11, 1-[(1R)-2-methoxy-1-methylethyl]-3-(3-morpholin-4-yl-1H-pyrazolo[4,3-c]pyridin-6-yl)urea] |

Same assay, conditions: Table 6, 0.5 nM hERK2, 30 μM ATP, 10 point titration, read-out: AERK2 IC50

| IC50 [nM] | Compound |
| --- | --- |
| 0.4 | Nc1n[nH]c2cc(NC(=O)N[C@@H](c3ccccc3)C3(O)CCCC3)ncc12 [Example 260, 1-(3-amino-1H-pyrazolo[4,3-c]-pyridin-6-yl)-3-[(S)-(1-hydroxy-cyclopentyl)-(phenyl)methyl]-urea] |
| 10 | CCOC(=O)Nc1n[nH]c2cc(NC(=O)N[C@H](C)c3ccccc3)ncc12 [Example 315, (R)-ethyl(6-(3-(1-phenylethyl)ureido)-1H-pyrazolo[4,3-c]pyridin-3-yl)carbamate] |
| 0.2 | C[C@@H](O)[C@@H](NC(=O)Nc1cc2[nH]nc(N3CCOCC3)c2cn1)c1ccc(F)cc1 [Example 97, 1-[(1S,2R)-1-(4-fluorophenyl)-2-hydroxypropyl]-3-(3-morpholin-4-yl-1H-pyrazolo[4,3-c]-pyridin-6-yl)urea] |
| 1.6 | C[C@@H]1CN(c2n[nH]c3cc(NC(=O)NC(c4ccc(F)cc4)C(C)(C)O)ncc23)C[C@H](C)O1 (stereo partly drawn) [Example 435, 1-{3-[(2R,6S)-2,6-dimethylmorpholin-4-yl]-1H-pyrazolo[4,3-c]-pyridin-6-yl}-3-[1-(4-fluorophenyl)-2-hydroxy-2-methylpropyl]urea] |
| 1.3 | Cc1nc(NC(=O)N[C@@H](c2ccc(F)cc2)C(C)(C)O)cc2[nH]nc(N3CCC3)c12 [Example 110, 1-(3-azetidin-1-yl-4-methyl-1H-pyrazolo[4,3-c]-pyridin-6-yl)-3-[(1S)-1-(4-fluorophenyl)-2-hydroxy-2-methylpropyl]urea] |
| 13.4 | C[C@@H](NC(=O)Nc1cc2[nH]nc(N[C@H](C)c3ccccn3)c2cn1)c1ccccc1 [Example 87, 1-[(1R)-1-phenylethyl]-3-(3-{[(1R)-1-pyridin-2-ylethyl]amino}-1H-pyrazolo[4,3-c]-pyridin-6-yl)urea] |
| 9.9 | C[C@@H](NC(=O)Nc1cc2[nH]nc(N3CC(C#N)C3)c2cn1)c1ccccc1 [Example 93, 1-[3-(3-cyanoazetidin-1-yl)-1H-pyrazolo[4,3-c]-pyridin-6-yl]-3-[(1R)-1-phenylethyl]urea] |
| 52.5 | CC(C)OC(=O)Nc1n[nH]c2cc(NC(=O)N[C@H](C)c3ccc(F)cc3)ncc12 [Example 398, 1-methylethyl [6-({[(1R)-1-(4-fluorophenyl)ethyl]carbamoyl}amino)-1H-pyrazolo[4,3-c]pyridin-3-yl]-carbamate] |
| 5.5 | COC[C@@H](NC(=O)Nc1cc2[nH]nc(N3CC(O)C3)c2cn1)c1ccccc1 [Example 80, 1-[3-(3-hydroxy-azetidin-1-yl)-1H-pyrazolo[4,3-c]-pyridin-6-yl]-3-[(1S)-2-methoxy-1-phenylethyl]urea] |
| 3.7 | COCC1CN(c2n[nH]c3cc(NC(=O)N[C@H](COC)c4ccccc4)ncc23)C1 [Example 82, 1-{3-[3-(methoxy-methyl)azetidin-1-yl]-1H-pyrazolo[4,3-c]-pyridin-6-yl}-3-[(1S)-2-methoxy-1-phenylethyl]urea] |
| 0.6 | COC(=O)Nc1n[nH]c2cc(NC(=O)N[C@@H](c3ccccc3)[C@H]3CCCO3)ncc12 [Example 290, methyl {6-[({(S)-phenyl[(2R)-tetra-hydrofuran-2-yl]-methyl}carbamoyl)amino]-1H-pyrazolo[4,3-c]-pyridin-3-yl}-carbamate] |
| 4.6 | C[C@@H](NC(=O)Nc1cc2[nH]nc(NC(=O)c3ccco3)c2cn1)c1ccccc1 [Example 207, N-[6-({[(1R)-1-phenylethyl]-carbamoyl}amino)-1H-pyrazolo[4,3-c]pyridin-3-yl]-furan-2-carboxamide] |
| 2.4 | C[C@@H](NC(=O)Nc1cc2[nH]nc(N3CCC(O)CC3)c2cn1)c1ccccc1 [Example 409, 1-[3-(4-hydroxypiperidin-1-yl)-1H-pyrazolo[4,3-c]-pyridin-6-yl]-3-[(1R)-1-phenylethyl]urea] |
| 8.3 | CCNc1n[nH]c2cc(NC(=O)NC3CCCC3c3ccccc3)ncc12 (centres unmarked) [Example 237, 1-[3-(ethylamino)-1H-pyrazolo[4,3-c]pyridin-6-yl]-3-(2-phenyl-cyclopentyl)urea] |
| 13.8 | CC[C@H](NC(=O)Nc1cc2[nH]nc(N3CCCC3)c2cn1)c1ccccn1 [Example 345, 1-[(1S)-1-pyridin-2-ylpropyl]-3-(3-pyrrolidin-1-yl-1H-pyrazolo[4,3-c]-pyridin-6-yl)urea] |
| 39.8 | C[C@@H](NC(=O)Nc1cc2[nH]nc(NC(=O)OCc3ccccc3)c2cn1)c1ccccc1 [Example 225, benzyl [6-({[(1R)-1-phenylethyl]-carbamoyl}amino)-1H-pyrazolo[4,3-c]pyridin-3-yl]-carbamate] |
| 0.5 | COC[C@@H](NC(=O)Nc1cc2[nH]nc(NC3COC3)c2cn1)c1ccccc1 [Example 198, 1-[(1S)-2-methoxy-1-phenylethyl]-3-[3-(oxetan-3-yl-amino)-1H-pyrazolo[4,3-c]-pyridin-6-yl]urea] |
| 0.4 | COC[C@H](NC(=O)Nc1cc2[nH]nc(N3CCOCC3)c2cn1)c1ccc(F)cc1 [Example 339, (R)-1-(1-(4-fluorophenyl)-2-methoxyethyl)-3-(3-morpholino-1H-pyrazolo[4,3-c]-pyridin-6-yl)urea] |
| 2.7 | C[C@H]1CN(c2n[nH]c3cc(NC(=O)N[C@@H](c4ccccc4)C(C)(C)O)ncc23)C[C@H](C(F)(F)F)O1 [Example 102, 1-[(1S)-2-hydroxy-2-methyl-1-phenylpropyl]-3-{3-[(2S,6R)-2-methyl-6-(trifluoromethyl)-morpholin-4-yl]-1H-pyrazolo[4,3-c]-pyridin-6-yl}urea] |
| 2 | CNc1n[nH]c2cc(NC(=O)N[C@@H](c3ccccc3)[C@@H]3CCCO3)ncc12 [Example 144, 1-(3-(methylamino)-1H-pyrazolo[4,3-c]pyridin-6-yl)-3-((S)-phenyl((S)-tetrahydrofuran-2-yl)methyl)urea] |
| 2.1 | C[C@@H](NC(=O)Nc1cc2[nH]nc(N[C@H]3CCOC3)c2cn1)c1ccccc1 [Example 77, 1-[(1R)-1-phenylethyl]-3-{3-[(3S)-tetrahydro-furan-3-ylamino]-1H-pyrazolo[4,3-c]-pyridin-6-yl}urea] |
| 1.2 | Nc1n[nH]c2cc(NC(=O)N[C@H](COC(F)F)c3ccccc3)ncc12 [Example 352, 1-(3-amino-1H-pyrazolo[4,3-c]-pyridin-6-yl)-3-[(1S)-2-(difluoromethoxy)-1-phenylethyl]urea] |
| 18.3 | C[C@@H](NC(=O)Nc1cc2[nH]nc(NCC(=O)N(C)C)c2cn1)c1ccccc1 [Example 347, N,N-dimethyl-N~2~-[6-({[(1R)-1-phenylethyl]-carbamoyl}-amino)-1H-pyrazolo[4,3-c]-pyridin-3-yl]-glycinamide] |
| 2.6 | CC[C@@H](NC(=O)Nc1cc2[nH]nc(N)c2cn1)c1ccc(Cl)cc1 [Example 273, 1-(3-amino-1H-pyrazolo[4,3-c]pyridin-6-yl)-3-[(1R)-1-(4-chloro-phenyl)propyl]urea] |
| 3.1 | COC(=O)Nc1n[nH]c2cc(NC(=O)NC(C)c3ccc(F)c(F)c3)ncc12 (centres unmarked) [Example 303, methyl [6-({[1-(3,4-difluoro-phenyl)ethyl]-carbamoyl}amino)-1H-pyrazolo[4,3-c]pyridin-3-yl]-carbamate] |
| 11.3 | CCNc1n[nH]c2cc(NC(=O)NCc3c(C)cccc3Cl)ncc12 [Example 227, 1-(2-chloro-6-methylbenzyl)-3-[3-(ethylamino)-1H-pyrazolo[4,3-c]pyridin-6-yl]urea] |
| 3.2 | CCNc1n[nH]c2cc(NC(=O)N[C@H](C)c3ccc(Cl)c(Cl)c3)ncc12 [Example 248, 1-[(1R)-1-(3,4-dichlorophenyl)ethyl]-3-[3-(ethyl-amino)-1H-pyrazolo[4,3-c]-pyridin-6-yl]urea] |
| 2.9 | CCNc1n[nH]c2cc(NC(=O)N[C@H](COC)c3ccccc3)nc(C)c12 [Example 334, 1-[3-(ethylamino)-4-methyl-1H-pyrazolo[4,3-c]-pyridin-6-yl]-3-[(1S)-2-methoxy-1-phenylethyl]urea] |
| 19.7 | COC(=O)Nc1n[nH]c2cc(NC(=O)N[C@H](C)C3CCCCC3)ncc12 [Example 292, methyl [6-({[(1R)-1-cyclohexylethyl]-carbamoyl}amino)-1H-pyrazolo[4,3-c]pyridin-3-yl]-carbamate] |
| 27.3 | C[C@@H](NC(=O)Nc1cc2[nH]nc(N3CC(C)(O)C3)c2cn1)c1ccccc1 [Example 92, 1-[3-(3-hydroxy-3-methylazetidin-1-yl)-1H-pyrazolo[4,3-c]-pyridin-6-yl]-3-[(1R)-1-phenylethyl]urea] |
